{"source": "patent US20040248257A1", "about": "“SPEX compositions and methods of use” (The Scripps Research Institute, priority 2003, published 2004)", "key": {"mSPEX mRNA expression": {"test_system": "mSPEX mRNA expression", "details": "murine cells; 10 μM U0126; cultured DP thymocytes; one experiment", "method": "(§1) The expression of mSPEX and hSPEX mRNAs is compared in cultured DP thymocytes in the presence or absence of stimulation with PMA and ionomycin and in the presence or absence of a MEK inhibitor (10 μM U0126)."}, "hSPEX mRNA expression": {"test_system": "hSPEX mRNA expression", "details": "human cells; 10 μM U0126; cultured DP thymocytes; one experiment", "method": "as §1"}}, "data": [{"compound": "N#CC(=C(/N)Sc1ccccc1N)/C(C#N)=C(\\N)Sc1ccccc1N", "note": "[U0126]", "values": [{"measurement": "inhibition of the increase of SPEX mRNA expression observed with PMA and ionomycin stimulation", "setting": "mSPEX mRNA expression", "value": "approximately 70%"}, {"measurement": "inhibition of the increase of SPEX mRNA expression observed with PMA and ionomycin stimulation", "setting": "hSPEX mRNA expression", "value": "approximately 70%"}]}]}
